Measurements from patent US4562175A, “Synthetic peptides” (priority 1984, dated 1985).
Entries after “also recorded” stand apart in the source; their conditions may differ. Non-standard residues stand in square brackets, D forms with d. No end group written: not given here. Nle = CCCC[C@H](N)C(=O)O

Legend:
[1] = test system: monolayer rat pituitary cell cultures; experiment: GH release from monolayer rat pituitary cell cultures; type: cell-based
Protocol: In vitro analysis of the synthetic peptide: The synthetic Nle^27 -hpGRF was added to the medium of monolayer rat pituitary cell cultures and incubated. After incubation, the media was assayed for GH released from the pituitary cells and compared to control cultures (medium alone). The amount of GH released in response to varying doses of Nle^27 -hpGRF was compared to the GH release induced by the same concentrations of the synthetic hpGRF.

[2] = Susceptibility to oxidation / loss of biological activity (stability); type: physicochemical
[3] = storage or in a living system; believed to be caused at least partly by oxidation of methionine 27; cited from earlier work

Row | Substance | GH-releasing activity (GH released into medium) compared with hpGRF ([1]; varying doses, same concentrations as synthetic hpGRF, tested at the same time under identical conditions) | resistance to oxidation ([2]; norleucine at position 27 instead of methionine) | loss of biological activity through methionine oxidation [2] | GH-releasing activity with reducing agent added to the test medium ([1]; L-ascorbic acid added to test medium, compared to medium without reducing agent) | loss of biological activity during storage or when introduced into a living system [3]
1 | YADAIFTNSYRKVLGQLSARKLLQDI[Nle]SRQQGQSNQERGARARL-NH2 [Nle^27 -hpGRF] | significantly greater biological activity than synthetic hpGRF; also recorded: greater growth hormone-releasing activity than the natural compound; also recorded: greater GH-releasing activity than original hpGRF | resistant to oxidation |  |  | 
2 | corticotropin-releasing factor |  |  | Loss of biologic activity |  | 
3 | hpGRF: human pancreatic tumor growth hormone-releasing factor, 44 amino acid residues, methionine at position 27 |  |  | drastic loss of biological activity | enhance the GH-releasing activity | drastic loss of biological activity
